The numbers were not newly measured in patent EP4729530A1, “NOVEL PEPTIDE AND USE THEREOF” (Gemvax & Kael Co., Ltd., priority 2023, dated 2024), which cites them from elsewhere.

What is called GI50 is the concentration at which growth is held to half of that of the control. In general, EC50 refers to the concentration needed to bring the measured effect to its halfway point.

The conditions of series [1]: read-out: cytotoxicity (GI50); cited from earlier work.
The target of series [2] is tau (Homo sapiens, UniProt P10636). The settings on record: read-out: tau aggregation inhibition range (EC50); cited from earlier work.
Chain of tau (P10636 whole entry): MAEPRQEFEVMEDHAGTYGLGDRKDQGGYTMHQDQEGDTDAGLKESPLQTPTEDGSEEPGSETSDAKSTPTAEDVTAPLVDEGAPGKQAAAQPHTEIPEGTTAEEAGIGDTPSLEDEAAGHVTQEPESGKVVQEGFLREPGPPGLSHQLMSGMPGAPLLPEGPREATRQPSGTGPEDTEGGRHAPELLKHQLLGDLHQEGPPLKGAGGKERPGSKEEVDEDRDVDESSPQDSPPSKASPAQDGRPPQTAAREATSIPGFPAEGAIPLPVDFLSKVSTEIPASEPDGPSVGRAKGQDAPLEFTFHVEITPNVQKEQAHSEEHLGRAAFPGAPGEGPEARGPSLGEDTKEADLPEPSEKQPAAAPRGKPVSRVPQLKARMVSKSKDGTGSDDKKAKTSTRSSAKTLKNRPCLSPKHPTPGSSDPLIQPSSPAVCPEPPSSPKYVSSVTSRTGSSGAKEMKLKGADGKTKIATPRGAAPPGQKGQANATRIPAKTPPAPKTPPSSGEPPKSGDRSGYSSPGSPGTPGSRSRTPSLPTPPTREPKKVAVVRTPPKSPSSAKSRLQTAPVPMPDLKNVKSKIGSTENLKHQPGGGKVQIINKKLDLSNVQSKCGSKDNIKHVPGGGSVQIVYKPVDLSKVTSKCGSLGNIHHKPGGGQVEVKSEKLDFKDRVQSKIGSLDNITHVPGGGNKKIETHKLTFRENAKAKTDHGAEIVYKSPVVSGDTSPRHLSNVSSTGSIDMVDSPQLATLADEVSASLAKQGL

SMILES strings stand for the structures.

Take `CN(C)c1ccc2c(c1)Sc1cc(N(C)C)ccc1N2` [LMTM]: in series [1], the GI50 was 6.4 ± 0.3 µM. Further, in series [2], the EC50 was 2.2 ± 0.2 µM.
